# Laboratory results taken from patent US11427549B2, “Pyrimidinyloxy benzo-fused compounds as herbicides” (FMC Corporation, priority 2017, dated 2022).
# How the values were obtained:
# Type in all cases: in vivo
# [1] = tested on: foxtail, giant (giant foxtail, Setaria faberii); assay: Test A postemergence, foxtail, giant; settings: Setaria faberi, post-emergence, 240 h, 0 to 100 scale (0 no effect, 100 complete control), read-out: Plant response rating, Foxtail, Giant; for pest or weed control at 31 g/ha: 31 g ai/ha; for pest or weed control at 125 g/ha: 125 g ai/ha
# Source text: (§1) Seeds of plant species selected from barnyardgrass (Echinochloa crus-galli), kochia (Kochia scoparia), ragweed (common ragweed, Ambrosia elatior), ryegrass, Italian (Italian ryegrass, Lolium multiflorum), foxtail, giant (giant foxtail, Setaria faberii), foxtail, green (green foxtail, Setaria viridis) and pigweed (Amaranthus retroflexus) were planted into a blend of loam soil and sand and treated preemergence with a directed soil spray using test chemicals formulated in a non-phytotoxic solvent mixture which included a surfactant.
# (§2) At the same time, plants selected from these weed species and also wheat (Triticum aestivum), corn (Zea mays), blackgrass (Alopecurus myosuroides), and galium (catchweed bedstraw, Galium aparine) were planted in pots containing the same blend of loam soil and sand and treated with postemergence applications of test chemicals formulated in the same manner. Plants ranged in height from 2 to 10 cm and were in the one- to two-leaf stage for the postemergence treatment. Treated plants and untreated controls were maintained in a greenhouse for approximately 10 days, after which time all treated plants were compared to untreated controls and visually evaluated for injury. […] A dash (-) response means no test result.
# [2] = tested on: foxtail, green (green foxtail, Setaria viridis); assay: Test A preemergence, foxtail, green; settings: Setaria, pre-emergence, 240 h, 0 to 100 scale (0 no effect, 100 complete control), read-out: Plant response rating, Foxtail, Green; for pest or weed control at 31 g/ha: 31 g ai/ha; for pest or weed control at 125 g/ha: 125 g ai/ha; for pest or weed control at 500 g/ha: 500 g ai/ha
# Source text: as §1, §2
# [3] = tested on: foxtail, green (green foxtail, Setaria viridis); assay: Test A postemergence, foxtail, green; settings: Setaria, post-emergence, 240 h, 0 to 100 scale (0 no effect, 100 complete control), read-out: Plant response rating, Foxtail, Green; for pest or weed control at 31 g/ha: 31 g ai/ha; for pest or weed control at 125 g/ha: 125 g ai/ha; for pest or weed control at 500 g/ha: 500 g ai/ha
# Source text: as §1, §2
SMILES,pest or weed control at 31 g/ha [1] [%],pest or weed control at 125 g/ha [1] [%],pest or weed control at 31 g/ha [2] [%],pest or weed control at 125 g/ha [2] [%],pest or weed control at 31 g/ha [3] [%],pest or weed control at 125 g/ha [3] [%],pest or weed control at 500 g/ha [2] [%],pest or weed control at 500 g/ha [3] [%]
"FC(F)(F)CCCC1COc2cccc(Oc3ncc(Cl)cn3)c21 (stereo not drawn) [Compound 33, 5-Chloro-2-[[2,3-dihydro-3-(4,4,4-trifluorobutyl)-4-benzofuranyl]oxy]pyrimidine]",20,20,–,–,–,–,–,–
"O=C1c2cccc(Oc3ncc(Cl)cn3)c2C1CCC(F)(F)F (stereo not drawn) [Compound 24, 2-[(5-Chloro-2-pyrimidinyl)oxy]-8-(3,3,3-trifluoropropyl)bicyclo[4.2.0]octa-1,3,5-trien-7-one]",0,50,–,–,–,–,–,–
"FC(F)(F)CCC1OCc2cccc(Oc3ncc(Cl)cn3)c21 (stereo not drawn) [Compound 8, 5-Chloro-2-[[1,3-dihydro-3-(3,3,3-trifluoropropyl)-4-isobenzofuranyl]oxy]pyrimidine]",–,–,80,100,20,70,–,–
"O=C1c2cccc(Oc3ncc(Cl)cn3)c2C1CCCC(F)(F)F (stereo not drawn) [Compound 22, 2-[(5-Chloro-2-pyrimidinyl)oxy]-8-(4,4,4-trifluorobutyl)bicyclo[4.2.0]octa-1,3,5-trien-7-one]",0,40,–,–,–,–,–,–
"O=C1OCc2cccc(Oc3ncc(Cl)cn3)c2C1CCCCC(F)(F)F (stereo not drawn) [Compound 34, 5-[(5-Chloro-2-pyrimidinyl)oxy]-1,4-dihydro-4-(5,5,5-trifluoropentyl)-3H-2-benzopyran-3-one]",0,20,–,–,–,–,–,–
"OC1(CCC(F)(F)F)CCc2cccc(Oc3ncc(Cl)cn3)c21 (stereo not drawn) [Compound 14, 7-[(5-Chloro-2-pyrimidinyl)oxy]-2,3-dihydro-1-(3,3,3-trifluoropropyl)-1H-inden-1-ol]",–,–,–,40,–,0,100,50
"FC(F)(F)CCCC1OCc2cccc(Oc3ncc(Cl)cn3)c21 (stereo not drawn) [Compound 7, 5-chloro-2-[[1,3-dihydro-3-(4,4,4-trifluorobutyl)-4-isobenzofuranyl]oxy]-pyrimidine]",–,–,80,100,30,90,–,–
"CN1C(=O)c2cccc(Oc3ncc(Cl)cn3)c2C1CCCC(F)(F)F (stereo not drawn) [Compound 12, 4-[(5-Chloro-2-pyrimidinyl)oxy]-2,3-dihydro-2-methyl-3-(4,4,4-trifluorobutyl)-1H-isoindol-1-one]",–,–,0,0,0,10,–,–
"O=C1OCc2cccc(Oc3ncc(Cl)cn3)c2C1CCCC(F)(F)F (stereo not drawn) [Compound 26, 5-[(5-Chloro-2-pyrimidinyl)oxy]-1,4-dihydro-4-(4,4,4-trifluorobutyl)-3H-2-benzopyran-3-one]",0,20,–,–,–,–,–,–
"FC(F)(F)CC[C@H]1OCc2cccc(Oc3ncc(Cl)cn3)c21 [Compound 20, 5-Chloro-2-[[(3R)-1,3-dihydro-3-(3,3,3-trifluoropropyl)-4-isobenzofuranyl]oxy]-pyrimidine]",50,90,–,–,–,–,–,–
"FC(F)(F)CCCC1CCc2cccc(Oc3ncc(Cl)cn3)c21 (stereo not drawn) [Compound 9, 5-Chloro-2-[[2,3-dihydro-3-(4,4,4-trifluorobutyl)-1H-inden-4-yl]oxy]pyrimidine]",–,–,70,100,20,60,–,–
"FC(F)(F)CCC1COc2cccc(Oc3ncc(Cl)cn3)c21 (stereo not drawn) [Compound 36, 5-Chloro-2-[[2,3-dihydro-3-(3,3,3-trifluoropropyl)-4-benzofuranyl]oxy]pyrimidine]",0,20,–,–,–,–,–,–
"O=C1OC(CCC(F)(F)F)c2c(Oc3ncc(Cl)cn3)cccc21 (stereo not drawn) [Compound 4, 4-[(5-Chloro-2-pyrimidinyl)oxy]-3-(3,3,3-trifluoropropyl)-1(3H)-isobenzofuranone]",–,–,100,100,30,90,–,–
"O=C1OCC(CCC(F)(F)F)c2c(Oc3ncc(Cl)cn3)cccc21 (stereo not drawn) [Compound 25, 5-[(5-Chloro-2-pyrimidinyl)oxy]-3,4-dihydro-4-(3,3,3-trifluoropropyl)-1H-2-benzopyran-1-one]",0,30,–,–,–,–,–,–
"O=C1O[C@H](CCCC(F)(F)F)c2c(Oc3ncc(Cl)cn3)cccc21 [Compound 3, (3R)-4-[(5-Chloro-2-pyrimidinyl)oxy]-3-(4,4,4-trifluorobutyl)-1-(3H)-isobenzofuranone]",–,–,100,100,40,100,–,–
"O=C1OCc2cccc(Oc3ncc(Cl)cn3)c2C1CCC(F)(F)F (stereo not drawn) [Compound 29, 5-[(5-Chloro-2-pyrimidinyl)oxy]-1,4-dihydro-4-(3,3,3-trifluoropropyl)-3H-2-benzopyran-3-one]",0,10,–,–,–,–,–,–
"FC(F)(F)CC[C@@H]1OCc2cccc(Oc3ncc(Cl)cn3)c21 [Compound 21, 5-Chloro-2-[[(3S)-1,3-dihydro-3-(3,3,3-trifluoropropyl)-4-isobenzofuranyl]oxy]-pyrimidine]",0,20,–,–,–,–,–,–
"O=C1O[C@@H](CCCC(F)(F)F)c2c(Oc3ncc(Cl)cn3)cccc21 [Compound 2, (3S)-4-[(5-Chloro-2-pyrimidinyl)oxy]-3-(4,4,4-trifluorobutyl)-1-(3H)-isobenzofuranone]",–,–,0,30,0,10,–,–
"FC(F)(F)CCCC1OCCc2cccc(Oc3ncc(Cl)cn3)c21 (stereo not drawn) [Compound 27, 5-Chloro-2-[[3,4-dihydro-1-(4,4,4-trifluorobutyl)-1H-2-benzopyran-8-yl]oxy]pyrimidine]",10,30,–,–,–,–,–,–
"O=C1NC(CCCC(F)(F)F)c2c(Oc3ncc(Cl)cn3)cccc21 (stereo not drawn) [Compound 13, 4-[(5-Chloro-2-pyrimidinyl)oxy]-2,3-dihydro-3-(4,4,4-trifluorobutyl)-1H-isoindol-1-one]",–,–,0,0,0,0,–,–
"O=C1COC(CCCC(F)(F)F)c2c(Oc3ncc(Cl)cn3)cccc21 (stereo not drawn) [Compound 5, 8-[(5-Chloro-2-pyrimidinyl)oxy]-1-(4,4,4-trifluorobutyl)-1H-2-benzopyran-4(3H)-one]",–,–,0,0,10,10,–,–
"O=C1CC(CCC(F)(F)F)c2c(Oc3ncc(Cl)cn3)cccc21 (stereo not drawn) [Compound 11, 4-[(5-Chloro-2-pyrimidinyl)oxy]-2,3-dihydro-3-(3,3,3-trifluoropropyl)-1H-inden-1-one]",–,–,10,70,0,10,–,–
"FC(F)(F)CCC1OCCc2cccc(Oc3ncc(Cl)cn3)c21 (stereo not drawn) [Compound 32, 5-Chloro-2-[[3,4-dihydro-1-(3,3,3-trifluoropropyl)-1H-2-benzopyran-8-yl]oxy]pyrimidine]",0,20,–,–,–,–,–,–
"O=C1CCC(CCCC(F)(F)F)c2c(Oc3ncc(Cl)cn3)cccc21 (stereo not drawn) [Compound 30, 5-[(5-Chloro-2-pyrimidinyl)oxy]-3,4-dihydro-4-(4,4,4-trifluorobutyl)-1(2H)-naphthalenone]",0,40,–,–,–,–,–,–
"OC1CC(CCCC(F)(F)F)c2c(Oc3ncc(Cl)cn3)cccc21 (stereo not drawn) [Compound 10, 4-[(5-Chloro-2-pyrimidinyl)oxy]-2,3-dihydro-3-(4,4,4-trifluorobutyl)-1H-inden-1-ol]",–,–,60,90,10,50,–,–
"O=C1OC(CCCC(F)(F)F)c2c(Oc3ncc(Cl)cn3)cccc21 (stereo not drawn) [Compound 1, 4-[(5-Chloro-2-pyrimidinyl)oxy]-3-(4,4,4-trifluorobutyl)-1(3H)-isobenzofuranone]",–,–,–,100,–,90,100,100
